This note sets out measurements from publication PMC6936460 (Proceedings of the National Academy of Sciences of the …, 2019).

The assay has as its system P. aeruginosa C1. Kind of assay: P. aeruginosa lung infection mouse model. To be noted: for median lung bacteria load: 2 times per day for 3 days, n = 8, vehicle 2.51 × 10^7 CFU/g; for inhibition of lung colonization: vs vehicle. Format: in vivo, C57BL/6 mice.

Turning to colistin sulfate, where the note is “2 mg/kg i.v.”, the “median lung bacteria load” value is listed as 1.72 × 10^7 CFU/g and the “inhibition of lung colonization” value turned out to be 31%. Further, where the note is “4 mg/kg i.v.”, the “median lung bacteria load” value is listed as 0.86 × 10^7 CFU/g and the “inhibition of lung colonization” value is 65%.
